Patent US5023084A, “Transdermal estrogen/progestin dosage unit, system and process” (Rutgers, The State University of New Jersey, priority 1988, dated 1991)

Experiment: not given
Details: oral; cited from earlier work

Row | SMILES | 17-beta-estradiol destroyed when taken orally
1 | C[C@]12CC[C@@H]3c4ccc(O)cc4CC[C@H]3[C@@H]1CC[C@@H]2O [17-beta-estradiol] | over 90%

Experiment: Permeation of estradiol and levonorgestrel across adult male human cadaver skin
Type: in vitro ADME
Details: not given
Description: Layer 2 contains levonorgestrel and layer 4 contains 17-beta-estradiol.
The primary and secondary enhancing agents are incorporated into levonorgestrel containing layer 2. The amounts of primary and secondary enhancing agents specified in Table 16 are used in making dosage units.
Permeation rates (mcg/sq. cm/hr±S.D.) are determined using the in vitro procedure of Y. W. Chien et al. identified in Example 1 using human cadaver skin.

Row | SMILES | Estradiol/Levonorgestrel Rate/Ratio | Permeation Rate, Estradiol | Permeation Rate, Levonorgestrel
2 | CC1=C(/C=C/C(C)=C/C=C/C(C)=C/CO)C(C)(C)CCC1 [Retinol, retinol] | 1.5 (0.11) | 0.21 (0.040) mcg/sq. cm/hr | 0.141 (0.019) mcg/sq. cm/hr
3 | CC1=C(/C=C/C(C)=C/C=C/C(C)=C/C(=O)O)C(C)(C)CCC1 [Retinoic Acid, retinoic acid] | 1.4 (0.16) | 0.22 (0.033) mcg/sq. cm/hr | 0.159 (0.024) mcg/sq. cm/hr
4 | CCCCCCCCCCO [n-Decyl Alcohol, n-decyl alcohol] | 2.4 (0.21) |  | 
5 | CCCCCCCCCCCCCCCC(=O)OC/C=C(C)/C=C/C=C(C)/C=C/C1=C(C)CCCC1(C)C [Retinyl Palmitate, retinyl palmitate] | 1.0 (0.13) | 0.18 (0.030) mcg/sq. cm/hr | 0.176 (0.027) mcg/sq. cm/hr

Other lines, results leading:

Row | Estradiol/Levonorgestrel Rate/Ratio | Permeation Rate, Estradiol | Permeation Rate, Levonorgestrel | SMILES
6 | 1.6 (0.10) | 0.20 (0.031) mcg/sq. cm/hr | 0.127 (0.021) mcg/sq. cm/hr | Cc1c(C)c2c(c(C)c1O)CCC(C)(CCCC(C)CCCC(C)CCCC(C)C)O2 (racemic) [dl-alpha-Tocopherol]
7 | 1.0 (0.07) | 0.18 (0.024) mcg/sq. cm/hr | 0.182 (0.029) mcg/sq. cm/hr | CC(=O)Oc1c(C)c(C)c2c(c1C)CCC(C)(CCCC(C)CCCC(C)CCCC(C)C)O2 (racemic) [dl-alpha-Tocopherol Acetate]

Same assay, conditions: dosage unit with […] W/W n-decyl alcohol, with or without 5.0% secondary enhancer; S.D. in parentheses

Row | SMILES | Permeation Rate, Estradiol | Permeation Rate, Levonorgestrel
8 | CCCCCCCCCCO [n-Decyl Alcohol, n-decyl alcohol] | 0.19 (0.031) mcg/sq. cm/hr | 0.080 (0.017) mcg/sq. cm/hr
